Measurements as given in patent publication US20250002954A1, “Novel Compound, Use Thereof, and Method for Producing Same, and Compound-Containing Composition, Method for Producing 4-Trehalosamine, and Microorganism” (Microbial Chemistry Research Foundation, priority 2021, published 2025).

What was measured:
[1] = biological target: T1, yeast alcohol dehydrogenase (ADH) (Saccharomyces cerevisiae, UniProt P00330); experiment: Evaluation of ADH-protective activity under freeze-dried condition; type: biochemical; conditions: for ADH activity after freeze-drying: freeze-dried with 1% or 3% sugar, GOL 3%
T1 construct: purchased Oriental Yeast Co., Ltd
T1 sequence (P00330 1-348): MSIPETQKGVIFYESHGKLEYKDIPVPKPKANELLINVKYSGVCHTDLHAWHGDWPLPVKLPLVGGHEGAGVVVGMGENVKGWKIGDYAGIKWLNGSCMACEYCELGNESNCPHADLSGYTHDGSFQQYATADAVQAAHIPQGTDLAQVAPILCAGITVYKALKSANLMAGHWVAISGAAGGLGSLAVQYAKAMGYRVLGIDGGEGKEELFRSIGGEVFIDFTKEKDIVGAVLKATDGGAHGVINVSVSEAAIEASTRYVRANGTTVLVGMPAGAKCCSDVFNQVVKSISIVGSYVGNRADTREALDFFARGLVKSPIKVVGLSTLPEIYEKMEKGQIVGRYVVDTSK
Procedure: Test samples 1 to 12 containing yeast alcohol dehydrogenase (ADH) were prepared as follows and protein-protective activity of various kinds of added sugar under freeze-dried condition was evaluated.
Yeast alcohol dehydrogenase (manufactured by Oriental Yeast Co., Ltd.) was dissolved in water at 1,000 units/mL and then diluted to 6 units/mL with TBS (manufactured by Takara Bio Inc.). 50 μL of TBS containing 2% trehalose (TRH) was added to and mixed with 50 μL of this enzyme solution and the mixture was frozen at −80° C. for 10 minutes. It was then freeze-dried for 20 hours with a freeze dryer (FLEXI-DRY, manufactured by FTS systems INC., Warminster) connected to a vacuum pump (P65D, manufactured by PHIL Sato Vac INC.), preparing freeze-dried product of enzyme with 1% TRH.
Freeze-dried product of enzyme with 3% TRH was prepared in a similar manner to the preparation method of test sample 4 except that the final concentration of trehalose was changed to 3% in the preparation method of test sample 4.
Freeze-dried product of enzyme with 1% 4TA was prepared in a similar manner to the preparation method of test sample 4 except that trehalose was changed to 4-trehalosamine (4TA) in the preparation method of test sample 4.
Freeze-dried product of enzyme with 3% 4TA was prepared in a similar manner to the preparation method of test sample 5 except that trehalose was changed to 4-trehalosamine (4TA) in the preparation method of test sample 5.
Freeze-dried product of enzyme with 1% MLT was prepared in a similar manner to the preparation method of test sample 4 except that trehalose was changed to maltose (MLT) in the preparation method of test sample 4.
Freeze-dried product of enzyme with 3% MLT was prepared in a similar manner to the preparation method of test sample 5 except that trehalose was changed to maltose (MLT) in the preparation method of test sample 5.
Freeze-dried product of enzyme with 1% SCR was prepared in a similar manner to the preparation method of test sample 4 except that trehalose was changed to sucrose (SCR) in the preparation method of test sample 4.
Freeze-dried product of enzyme with 3% SCR was prepared in a similar manner to the preparation method of test sample 5 except that trehalose was changed to sucrose (SCR) in the preparation method of test sample 5.
Freeze-dried product of enzyme with 3% GOL was prepared in a similar manner to the preparation method of test sample 5 except that trehalose was changed to glycerol (GOL) in the preparation method of test sample 5.
The enzyme solution from test sample 1, the freeze-thaw product of enzyme from test sample 2, and the freeze-dried products from test samples 3 to 12 were each diluted to 0.012 units/mL with TBS. 0.5 mM β-NAD^+ (manufactured by Oriental Yeast Co., Ltd.) and 0.62 M ethanol were added, and enzyme reaction was left to take place at room temperature for 1 hour. After the reaction, absorbance at 340 nm was measured with a microplate reader (Cytation5, manufactured by Bio Tek Instruments) (n=3, mean±S.D.). The value of this absorbance at 340 nm was divided by the value of absorbance at 340 nm for the enzyme solution of test sample 1 (control) to determine ADH activity.

[2] = tested on: Escherichia coli K-12; experiment: Evaluation of Escherichia coli protective activity in freeze-dried condition; type: cell-based; conditions: for Numbers of live bacterial cells (relative numbers): Escherichia coli freeze-dried with 6% aqueous solution (final concentration 3%), test sample 3 (FD) = 1
Procedure: Using test samples 1 to 8 containing Escherichia coli prepared in the following manner, microorganism-protective activity with various kinds of sugar in a freeze-dried condition was evaluated.
Frozen stock of Escherichia coli (Escherichia coli K-12, owned by the Microbial Chemistry Research Foundation) was inoculated in 10 mL of Luria-Bertani (LB) culture medium (manufactured by Difco) and cultured at 37° C. for 24 hours while shaking it at 220 rpm. After culture, it was centrifuged at 3,000×g for 5 minutes, washed once with 10 mL of water, and then suspended in 10 mL of water, thus obtaining Escherichia coli suspension. 50 μL of water was added to and mixed with 50 μL of this Escherichia coli suspension and the mixture was left to stand at 4° C. for 12 hours, preparing control (NF).
After Escherichia coli suspension was prepared in a similar manner to test sample 1, 50 μL of 6% aqueous solution of trehalose was added to and mixed with 50 μL of the Escherichia coli suspension, and the mixture was frozen at −80° C. for 1 hour. It was then freeze-dried for 12 hours with a freeze dryer (FLEXI-DRY, manufactured by FTS systems INC., Warminster) connected to a vacuum pump (P65D, manufactured by PHIL Sato Vac INC.), preparing freeze-dried product (TRH) of Escherichia coli with TRH.
Freeze-dried product (4TA) of Escherichia coli with 4TA was obtained in a similar manner to the preparation method of test sample 4 except that trehalose was changed to 4-trehalosamine (4TA) in the preparation method of test sample 4.
Freeze-dried product (MLT) of Escherichia coli with MLT was obtained in a similar manner to the preparation method of test sample 4 except that trehalose was changed to maltose (MLT) in the preparation method of test sample 4.
Freeze-dried product (SCR) of Escherichia coli with SCR was obtained in a similar manner to the preparation method of test sample 4 except that trehalose was changed to sucrose (SCR) in the preparation method of test sample 4.
Freeze-dried product (GOL) of Escherichia coli with GOL was obtained in a similar manner to the preparation method of test sample 4 except that trehalose was changed to glycerol (GOL) in the preparation method of test sample 4.
For test samples 1 and 2, serial suspensions were made by diluting them to 1/10 with water. 100 μL of water was added to each of the freeze-dried products of test samples 3 to 8 and diluted to 1/10 with water to make their serial suspensions. 80 μL of water was added to 10 μL of each diluted solution.
In a 6-well microplate, 2% Agar-LB was prepared at 3 mL/well, and 90 μL of each diluted solution was inoculated on the 2% Agar-LB and cultured at 37° C. for 24 hours.
Wells in which the number of colonies was measurable were selected and the numbers (relative numbers) of live bacterial cells per well on test samples 1, 2, and 4 to 8 when the number of live bacterial cells per well on test sample 3 (FD) was “1” were calculated in consideration of the dilution concentrations of those test samples.

ADH activity after freeze-drying [1] | Compound | Numbers of live bacterial cells (relative numbers) [2] | ADH protection effect compared to other sugars ([1]; freeze-dried) | protective effect on microorganisms, comparison ([2]; Escherichia coli, freeze-dried)
good activity was maintained | OC[C@H]1O[C@H](O[C@H]2[C@H](O)[C@@H](O)C(O)O[C@@H]2CO)[C@H](O)[C@@H](O)[C@@H]1O (mixture of isomers) [maltose] | 10 |  | 
enzyme activity significantly dropped | OCC(O)CO [GOL, glycerol] | 0 |  | 
good activity was maintained | OC[C@H]1O[C@@](CO)(O[C@H]2O[C@H](CO)[C@@H](O)[C@H](O)[C@H]2O)[C@@H](O)[C@@H]1O [sucrose] | 100 |  | 

Compound | ADH activity after freeze-drying [1] | Numbers of live bacterial cells (relative numbers) [2] | ADH protection effect compared to other sugars ([1]; freeze-dried) | protective effect on microorganisms, comparison ([2]; Escherichia coli, freeze-dried)
N[C@H]1[C@H](O)[C@@H](O)[C@@H](O[C@H]2O[C@H](CO)[C@@H](O)[C@H](O)[C@H]2O)O[C@@H]1CO [4-trehalosamine] | good activity was maintained | 100 | high compared to the other sugars | stronger than when the other sugars were added
OC[C@H]1O[C@H](O[C@H]2O[C@H](CO)[C@@H](O)[C@H](O)[C@H]2O)[C@H](O)[C@@H](O)[C@@H]1O [trehalose, reference compound] | good activity was maintained | 10 |  | 
